Source: patent US20260053932A1, “COMPOUNDS AND METHODS FOR THE TARGETED DEGRADATION OF ANDROGEN RECEPTOR AND ASSOCIATED METHODS OF USE” (Arvinas Operations, Inc., priority 2020, published 2026)

test system: androgen receptor (AR) in LNCaP and/or VCaP cells; assay: Androgen Receptor ELISA assay (AR degradation); type: cell-based; conditions: LNCaP and/or VCaP cells; 5 hours incubation; media with R1881; read-out: DC50 Code* (degradation of AR ELISA)
Description: Androgen Receptor ELISA Assay. […] The protocols used with VCaP cells are described below.
The cells were grown for a minimum of 3 days.
(2)(i) A 10× stock plate in media was made; (ii) 2.5 μL of the 1000× stock was transferred to a new 10× stock plate (use 12 channel pipet, start at A (DMSO control) work thru H. When 247.5 µL of media was added to this plate, it served as a 10× stock; (iii) made media+1 nM R1881 for making 10× stock plate; (iv) added 247.5 μL of media with 1 nM R1881 to each well of the 10× stock plate, mix.
Then 22 μL of 10× stock was added to cells and incubated for 5 hours. […] Media was aspirated, and 100 μL 1× cell lysis buffer/well was added. The cells were placed on a shaker located in a cold room for 10 minutes and shaken at speed 7. The lysate mixture was mix and 20 μL transferred to 100 μl of Diluent in ELISA plate (0.15 μg/ml-[…]). The lysate-diluent mixture was store at 4° C. overnight on a shaker located in a cold room at speed 5 (gentle swirl).
The lysate-diluent mixture was shaken for 30 minutes at 37° C. The mouse AR antibody, anti-mouse antibody, TMB, and STOP solution were allowed to come to room temperature. The 1×ELISA buffer included in kit was made and loaded in reservoir. Media from the plate was discarded, the ELISA plate was tapped hard on paper towel, and washed 4×200 μl ELISA wash buffer using a plate washer for the first three washes and an eight channel aspirator for the fourth wash to more thoroughly aspirate the solution.
Next, 100 μL/well of mouse AR detection Ab was added; the plate was covered and shaken at 37° C. for 1 hour; media was discarded from the plates, the plates tapped on a paper towel and washed four times with 200 μL ELISA wash buffer with a plate washer for the first three washes and an eight channel aspirator for the fourth wash; 100 μL/well of anti-mouse—HRP conjugated Ab (comes with the kit) was added; the plates was cover and shaken at 37° C. for 30 minutes; the TMB reagent was allowed to come to room temperature; the media from the plate was discarded, the plates tapped on paper towel, and washed four times with 200 μL ELISA wash buffer with a plate washer for the first three washes and an eight channel aspirator for the fourth wash; plates were tapped on paper towel; 100 μL TMB was added to each well and the plate shaken for 2 minutes—while watching color. STOP solution (100 μL) was added when light blue color developed.
Data was analyzed and plotted using GraphPad Prism software. Exemplary compounds of Tables 1A, 1B, and 1C were assayed and the data shown below in Tables 2A, 2B, and 2C. DC50 (nM) categories (degradation of AR ELISA in LNCaP and/or VCaP cells) of Tables 2A, 2B, and 2C are as follows: A<1 nM; 1≤B<10 nM; 10≤C<100 nM; D≥100 nM. Dmax (%) categories (degradation of AR ELISA in LNCaP and/or VCaP cells) of Table 2 are as follows: A≥70; 50≤B<70; C<50

| SMILES | DC50 |
| --- | --- |
| Cc1cc(O[C@H]2CC[C@H](NC(=O)c3cnc(N4CCC(CN(C(C)C)[C@H]5C[C@H](Oc6cc(F)c7c(c6)C(=O)N(C6CCC(=O)NC6=O)C7=O)C5)CC4)cn3)CC2)cc(C)c1C#N (some centres unmarked) [Compound 46, N-((1r,4r)-4-(4-cyano-3,5-dimethylphenoxy)cyclohexyl)-5-(4-((((1r,3r)-3-((2-(2,6-dioxopiperidin-3-yl)-7-fluoro-1,3-dioxoisoindolin-5-yl)oxy)cyclobutyl) (isopropyl)amino)methyl)piperidin-1-yl)pyrazine-2-carboxamide] | < 1 nM |
| COc1cc(O[C@H]2CC[C@H](NC(=O)c3cnc(N4CCC(CN(C(C)C)[C@H]5CC[C@H](Oc6ccc7c(c6)C(=O)N(C6CCC(=O)NC6=O)C7=O)CC5)CC4)cn3)CC2)ccc1C#N (some centres unmarked) [Compound 31, N-((1r,4r)-4-(4-cyano-3-methoxyphenoxy)cyclohexyl)-5-(4-((((1r,4r)-4-((2-(2,6-dioxopiperidin-3-yl)-1,3-dioxoisoindolin-5-yl)oxy)cyclohexyl) (isopropyl)amino)methyl)piperidin-1-yl)pyrazine-2-carboxamide] | < 1 nM |
| Cc1cc(O[C@H]2CC[C@H](NC(=O)c3cnc(N4CCC(CN(C(C)C)[C@H]5C[C@H](Oc6ccc7c(c6)C(=O)N(C6CCC(=O)NC6=O)C7=O)C5)CC4)cn3)CC2)cc(C)c1C#N (some centres unmarked) [Compound 25, N-((1r,4r)-4-(4-cyano-3,5-dimethylphenoxy)cyclohexyl)-5-(4-((((1r,3r)-3-((2-(2,6-dioxopiperidin-3-yl)-1,3-dioxoisoindolin-5-yl)oxy)cyclobutyl) (isopropyl)amino)methyl)piperidin-1-yl)pyrazine-2-carboxamide] | < 1 nM |
| CC(C)N(CC1CCN(c2ncc(C(=O)NC3CCC(Oc4ccc(C#N)c(Cl)c4)CC3)cn2)CC1)C1CCC(Oc2ccc3c(c2)C(=O)N(C2CCC(=O)NC2=O)C3=O)CC1 (centres unmarked) [Compound 59, N-((1r,4r)-4-(3-chloro-4-cyanophenoxy)cyclohexyl)-2-(4-((((1r,4r)-4-((2-(2,6-dioxopiperidin-3-yl)-1,3-dioxoisoindolin-5-yl)oxy)cyclohexyl) (isopropyl)amino)methyl)piperidin-1-yl)pyrimidine-5-carboxamide] | < 1 nM |
| COc1cc(O[C@H]2CC[C@H](NC(=O)c3cnc(N4CC(CN(C(C)C)[C@H]5C[C@H](Oc6ccc7c(c6)C(=O)N(C6CCC(=O)NC6=O)C7=O)C5)C4)nc3)CC2)ccc1C#N (some centres unmarked) [Compound 57, N-((1r,4r)-4-(4-cyano-3-methoxyphenoxy)cyclohexyl)-2-(3-((((1r,3r)-3-((2-(2,6-dioxopiperidin-3-yl)-1,3-dioxoisoindolin-5-yl)oxy)cyclobutyl) (isopropyl)amino)methyl)azetidin-1-yl)pyrimidine-5-carboxamide] | < 1 nM |
| CC(C)N(CC1CCN(c2cnc(C(=O)N[C@H]3CC[C@H](Oc4ccc(C#N)c(Cl)c4)CC3)cn2)CC1)[C@H]1C[C@H](Oc2cc(F)c3c(c2)C(=O)N(C2CCC(=O)NC2=O)C3=O)C1 (some centres unmarked) [Compound 42, N-((1r,4r)-4-(3-chloro-4-cyanophenoxy)cyclohexyl)-5-(4-((((1r,3r)-3-((2-(2,6-dioxopiperidin-3-yl)-7-fluoro-1,3-dioxoisoindolin-5-yl)oxy)cyclobutyl) (isopropyl)amino)methyl)piperidin-1-yl)pyrazine-2-carboxamide] | < 1 nM |

same assay, conditions: degradation of AR ELISA in LNCaP and/or VCaP cells; Table 2C; read-out: DC50 Code*

| SMILES | DC50 |
| --- | --- |
| Cc1cc(O[C@H]2C(C)(C)[C@H](NC(=O)c3ccc(CN4CCOC[C@@H]4CN(C)[C@H]4C[C@H](Oc5ccc6c(c5)C(=O)N(C5CCC(=O)NC5=O)C6=O)C4)cc3)C2(C)C)cc(C)c1C#N (stereo partly drawn) [compound 148, N-((1r,3R)-3-(4-cyano-3,5-dimethylphenoxy)-2,2,4,4-tetramethylcyclobutyl)-4-(((3R)-3-((((1r,3R)-3-((2-(2,6-dioxopiperidin-3-yl)-1,3-dioxoisoindolin-5-yl)oxy)cyclobutyl) (methyl)amino)methyl)morpholino)methyl) benzamide] | < 1 nM |
| COc1cc(O[C@H]2C(C)(C)[C@H](NC(=O)c3cnc(N4CCC(CN(CCN5CCOCC5)[C@H]5C[C@H](Oc6ccc7c(c6)C(=O)N(C6CCC(=O)NC6=O)C7=O)C5)CC4)cn3)C2(C)C)ccc1C#N (some centres unmarked) [compound 209, N-((1r,3r)-3-(4-cyano-3-methoxyphenoxy)-2,2,4,4-tetramethylcyclobutyl)-5-(4-((((1r,3r)-3-((2-(2,6-dioxopiperidin-3-yl)-1,3-dioxoisoindolin-5-yl)oxy)cyclobutyl)(2-morpholinoethyl)amino)methyl)piperidin-1-yl)pyrazine-2-carboxamide] | < 1 nM |
| CCN(CC1CCN(c2ccc(C(=O)N[C@H]3C(C)(C)[C@H](Oc4cc(C)c(C#N)c(C)c4)C3(C)C)cc2)CC1)[C@H]1C[C@H](Oc2ccc3c(c2)C(=O)N(C2CCC(=O)NC2=O)C3=O)C1 (some centres unmarked) [compound 168, N-((1r,3r)-3-(4-cyano-3,5-dimethylphenoxy)-2,2,4,4-tetramethylcyclobutyl)-4-(4-((((1r,3r)-3-((2-(2,6-dioxopiperidin-3-yl)-1,3-dioxoisoindolin-5-yl)oxy)cyclobutyl) (ethyl)amino)methyl)piperidin-1-yl) benzamide] | < 1 nM |
| Cc1cc(O[C@H]2C(C)(C)[C@H](NC(=O)c3ncc(N4CCC(CN(C(C)C)[C@H]5C[C@H](Oc6ccc7c(c6)C(=O)N(C6CCC(=O)NC6=O)C7=O)C5)CC4)cn3)C2(C)C)cc(C)c1C#N (some centres unmarked) [compound 132, N-((1r,3r)-3-(4-cyano-3,5-dimethylphenoxy)-2,2,4,4-tetramethylcyclobutyl)-5-(4-((((1r,3r)-3-((2-(2,6-dioxopiperidin-3-yl)-1,3-dioxoisoindolin-5-yl)oxy)cyclobutyl) (isopropyl)amino)methyl)piperidin-1-yl)pyrimidine-2-carboxamide] | 1 to 10 nM |
| CC1(C)[C@H](NC(=O)c2ccc(N3CC4CN(CC5CCN(c6ccc7c(c6)C(=O)N(C6CCC(=O)NC6=O)C7=O)CC5)CC4C3)cc2)C(C)(C)[C@H]1Oc1ccc(C#N)c(Cl)c1 (some centres unmarked) [compound 107, N-((1r,3r)-3-(3-chloro-4-cyanophenoxy)-2,2,4,4-tetramethylcyclobutyl)-4-(5-((1-(2-(2,6-dioxopiperidin-3-yl)-1,3-dioxoisoindolin-5-yl)piperidin-4-yl)methyl)hexahydropyrrolo [3,4-c]pyrrol-2(1H)-yl)benzamide] | < 1 nM |
| COCCN(CC1CCN(c2cnc(C(=O)N[C@H]3C(C)(C)[C@H](Oc4ccc(C#N)c(OC)c4)C3(C)C)cn2)CC1)[C@H]1C[C@H](Oc2ccc3c(c2)C(=O)N(C2CCC(=O)NC2=O)C3=O)C1 (some centres unmarked) [compound 116, N-((1r,3r)-3-(4-cyano-3-methoxyphenoxy)-2,2,4,4-tetramethylcyclobutyl)-5-(4-((((1r,3r)-3-((2-(2,6-dioxopiperidin-3-yl)-1,3-dioxoisoindolin-5-yl)oxy)cyclobutyl)(2-methoxyethyl)amino)methyl)piperidin-1-yl)pyrazine-2-carboxamide] | < 1 nM |
| COCCN(CC1CC2(C1)CN(c1ccc(C(=O)N[C@H]3C(C)(C)[C@H](Oc4ccc(C#N)c(OC)c4)C3(C)C)cc1)C2)[C@H]1C[C@H](Oc2ccc3c(c2)C(=O)N(C2CCC(=O)NC2=O)C3=O)C1 (mixture of isomers) [compound 190, rac-N-((1r,3r)-3-(4-cyano-3-methoxyphenoxy)-2,2,4,4-tetramethylcyclobutyl)-4-(6-((((1r,3r)-3-((2-(2,6-dioxopiperidin-3-yl)-1,3-dioxoisoindolin-5-yl)oxy)cyclobutyl)(2-methoxyethyl)amino)methyl)-2-azaspiro[3.3]heptan-2-yl)benzamide] | < 1 nM |

same assay, conditions: degradation of AR ELISA in LNCaP and/or VCaP cells; read-out: DC50 Code*

| SMILES | DC50 |
| --- | --- |
| COc1cc(O[C@H]2C[C@H](N(CC(F)F)CC3CCN(c4cnc(C(=O)N[C@H]5C(C)(C)[C@H](Oc6cc(C)c(C#N)c(C)c6)C5(C)C)cn4)CC3)C2)cc2c1C(=O)N(C1CCC(=O)NC1=O)C2=O (some centres unmarked) [compound 246, N-((1r,3r)-3-(4-cyano-3,5-dimethylphenoxy)-2,2,4,4-tetramethylcyclobutyl)-5-(4-(((2,2-difluoroethyl)((1r,3r)-3-((2-(2,6-dioxopiperidin-3-yl)-7-methoxy-1,3-dioxoisoindolin-5-yl)oxy)cyclobutyl)amino)methyl)piperidin-1-yl)pyrazine-2-carboxamide] | 10 to 100 nM |
